Source: patent EP2112152A1, “Dihydropteridinones as Plk Inhibitors” (GPC Biotech AG, priority 2008, dated 2009)
Where two headings read alike, the source gives them in different places.

What was measured:
[1] = molecular target: Plk1 (Homo sapiens, UniProt P53350); assay: Select Screen Kinase Assay (Invitrogen Kinase Profiling Service); type: biochemical; details: tested at Invitrogen; read-out: IC50 values against Plk1 activity
Method: Selected compound of the present invention were tested in the Select Screen™ Kinase Profiling Service (Invitrogen Corporation, Madison, WI 53719, USA) against Plk1, under conditions of non-disclosure, non-dissemination and non-use.
In brief, compounds 1 and 13 (see Table 1) were tested at Invitrogen, and IC50 values against Plk1 activity of about 20 nM were obtained in each case.

[2] = tested on: HCT 116; assay: SRB cell proliferation assay, HCT 116; type: cell-based; details: Homo sapiens
Outline: (§1)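 Cells plated 24 h before compound, then exposed 72 h over a concentration range. TCA-fixed, sulforhodamine B-stained, bound dye read at OD520; IC50 derived from % inhibition of proliferation versus DMSO-treated cells.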

[3] = tested on: IMR-90; assay: SRB cell proliferation assay, IMR-90; type: cell-based; details: Homo sapiens
Outline: as §1

[4] = tested on: A549; assay: SRB cell proliferation assay, A549; type: cell-based; details: Homo sapiens, 18-Cell Line Panel, lung
Method: (§2) Cells were exposed to the test compounds at various concentrations appropriate to determine an IC50 for 72 hours. Cell proliferation was measured using the SRB assay according to Shekan et al (J Natl Cancer Inst (1990) 82, 1107-112) in order to estimate the IC50 values shown in Table 3. Briefly, cells were plated in 96 well dishes 24 hours prior to compound addition at the densities specified in Table 5.1. The assay was terminated with the addition of cold TCA to a final concentration of 10% after growth medium has been removed and the plates were incubated over night at 4°C. The plates were then washed 5 times with water and 100µl of a Sulforhodamine B solution (4%) was added to each well. The plates were then incubated for 10 minutes at room temperature before removal of unbound dye by washing with 1% acetic acid. The bound dye was solubilised with 10 mM Trizma base and the absorbance read at OD520.
(§3) Table 8.1: 18-Cell Line Panel

[5] = tested on: ACHN; assay: SRB cell proliferation assay, ACHN; type: cell-based; details: Homo sapiens, 18-Cell Line Panel, kidney
Method: as §2, §3

[6] = tested on: NCI-H460; assay: SRB cell proliferation assay, NCI-H460; type: cell-based; details: Homo sapiens, 18-Cell Line Panel, NSCLC
Method: as §2, §3

[7] = tested on: SW620; assay: SRB cell proliferation assay, SW620; type: cell-based; details: Homo sapiens, SW-620; 18-Cell Line Panel; colon
Method: as §2, §3

[8] = tested on: A-375; assay: SRB cell proliferation assay, A-375; type: cell-based; details: Homo sapiens, 18-Cell Line Panel, melanoma
Method: as §2, §3

[9] = tested on: SK-MEL-28; assay: SRB cell proliferation assay, SK-MEL-28; type: cell-based; details: Homo sapiens, 18-Cell Line Panel, melanoma
Method: as §2, §3

[10] = tested on: SK-MEL-5; assay: SRB cell proliferation assay, SK-MEL-5; type: cell-based; details: Homo sapiens, 18-Cell Line Panel, melanoma
Method: as §2, §3

[11] = tested on: COLO 205; assay: SRB cell proliferation assay, COLO 205; type: cell-based; details: Homo sapiens, 18-Cell Line Panel, colon
Method: as §2, §3

[12] = HCT-116, 18-Cell Line Panel, colon, read-out: IC50 HCT116
[13] = HCT-116, 72 h, 72 hours, SRB assay, read-out: CELLULAR IC50 HCT 116
[14] = 18-Cell Line Panel, lung, read-out: IC50 IMR-90
[15] = 72 hours, SRB assay, slow cycling cell line, read-out: CELLULAR IC50 IMR-90

Plk1, sequence (P53350 whole entry, species assumed): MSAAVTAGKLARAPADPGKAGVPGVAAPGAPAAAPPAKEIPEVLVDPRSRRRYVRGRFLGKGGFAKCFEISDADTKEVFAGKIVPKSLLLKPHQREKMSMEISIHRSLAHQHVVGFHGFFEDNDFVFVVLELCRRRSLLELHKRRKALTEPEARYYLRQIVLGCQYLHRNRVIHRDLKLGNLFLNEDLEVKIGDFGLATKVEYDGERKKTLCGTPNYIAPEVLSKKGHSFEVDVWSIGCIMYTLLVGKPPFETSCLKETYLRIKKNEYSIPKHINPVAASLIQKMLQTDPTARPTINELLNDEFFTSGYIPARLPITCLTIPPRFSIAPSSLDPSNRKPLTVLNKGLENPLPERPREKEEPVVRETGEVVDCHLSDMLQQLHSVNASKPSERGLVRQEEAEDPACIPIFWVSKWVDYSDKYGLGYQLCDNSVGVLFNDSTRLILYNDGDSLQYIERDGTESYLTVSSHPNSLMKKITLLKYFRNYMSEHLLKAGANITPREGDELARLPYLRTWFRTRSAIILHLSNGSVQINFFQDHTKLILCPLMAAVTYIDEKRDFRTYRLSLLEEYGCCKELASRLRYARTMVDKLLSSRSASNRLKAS

Compound	IC50 [1] [nM]	IC50 [2, 12] [nM]	IC50 [2, 13] [nM]	IC50 [3, 14] [nM]	IC50 [3, 15] [nM]	IC50 [4] [nM]	IC50 [5] [nM]	IC50 [6] [nM]	IC50 [7] [nM]	IC50 [8] [nM]	IC50 [9] [nM]	IC50 [10] [nM]	IC50 [11] [nM]
CCC1C(=O)N(C)c2cnc(Nc3ccc(C(=O)NC4CCN(C)CC4)cc3OC)nc2N1N(C)C (racemic) [Compound 1, 4-(8-Dimethylamino-7-ethyl-5-methyl-6-oxo-5,6,7,8-tetrahydro-pteridin-2-ylamino)-3-methoxy-N-(1-methyl-piperidin-4-yl)-benzamide]	~20	< 1000	< 1000	> 1000	> 1000	< 1000	> 1000	< 1000	< 1000	< 1000	> 1000	< 1000	< 1000
CCC1C(=O)N(C)c2cnc(Nc3ccc(C(=O)N[C@H]4CC[C@H](N5CCN(CC6CC6)CC5)CC4)cc3OC)nc2N1N(C)C (relative stereo) [Compound 13, N-[trans-4-(4-Cyclopropylmethyl-piperazin-1-yl)-cyclohexyl]-4-(8-dimethylamino-7-ethyl-5-methyl-6-oxo-5,6,7,8-tetrahydro-pteridin-2-ylamino)-3-methoxy-benzamide]	~20	< 1000	< 1000	> 1000	> 1000	< 1000	< 1000	< 1000	< 1000	< 1000	> 1000	< 1000	< 1000
